From US20250388542A1, “ANALOGUES OF PENTAMIDINE AND USES THEREFOR” (Auransa Inc., priority 2018, published 2025)

How the values were obtained:
Assay in all cases: CellTiter-Glo cytotoxicity, cancer cell line panel
Type in all cases: cell-based
786-O = settings: Homo sapiens, 786-0, Renal cell carcinoma
Description: (§1) The objective of this study is to investigate potential cell killing effect of Compounds 1-15 on 3 cancer cell lines. 50% inhibition concentration (IC50) was determined for these compounds in various cancer cell lines using CellTiter-Glo™ luminescent cell viability assay at different compound concentrations. Each cell line (e.g., NCI-H209; NCI-H69; and SW1271) was treated with Compounds 1-15 and culture medium contains 0.2% [v/v] DMSO vehicle control. All the cells were cultured in the media supplemented with 10-20% fetal bovine serum at 37° C., 5% CO2 and 95% humidity.
(§2) The objective of this study is to investigate the effect of Compound 1 on cytotoxicity against 61 different types of cancer cell lines. IC50 were values were obtained using CellTiter-Glo™ as described above. Each cell line shown in Table 3 was treated with Compound 1, a standard chemotherapy drug, cisplatin, as reference control and culture medium contains 0.2% [v/v] DMSO vehicle control. All cancer cell lines were cultured in media supplemented with 10-20% fetal bovine serum at 37° C., 5% CO2 and 95% humidity.

ACHN = settings: Homo sapiens, Papillary renal cell carcinoma
Description: as §1, §2

Caki-2 = settings: Homo sapiens; Caki-2, Papillary renal cell carcinoma
Description: as §1, §2

HCCLM3 = settings: Homo sapiens; HCCLM3, Hepatocellular carcinoma
Description: as §1, §2

HCT 116 = settings: Homo sapiens; HCT 116, Colon carcinoma
Description: as §1, §2

HLF = settings: Hepatocellular carcinoma
Description: as §1, §2

HUH-1 = settings: Homo sapiens; HUH-1, Hepatocellular carcinoma
Description: as §1, §2

HUH-6 CLONE5 = settings: HUH-6 CLONE5, Hepatoblastoma carcinoma
Description: as §1, §2

Hep G2 = settings: Homo sapiens, HepG2; Hep G2, Hepatoblastoma carcinoma
Description: as §1, §2

Hep3B = settings: Homo sapiens, Hepatocellular carcinoma
Description: as §1, §2

HuCCT1 = settings: Homo sapiens, HuCCT-1; HuCCT1, Intrahepatic cholangiocarcinoma
Description: as §1, §2

JHH-1 = settings: JHH1; JHH-1, Hepatocellular carcinoma
Description: as §1, §2

JHH-6 = settings: JHH-6, Hepatocellular carcinoma
Description: as §1, §2

LN-229 = settings: Homo sapiens; LN-229, Glioblastoma
Description: as §1, §2

LNCaP clone FGC = settings: Homo sapiens, Prostate carcinoma
Description: as §1, §2

MHCC97-H = settings: Homo sapiens, MHCC97H, Hepatocellular carcinoma
Description: as §1, §2

MKN45 = settings: Homo sapiens, MKN-45; MKN45, Gastric adenocarcinoma
Description: as §1, §2

NCI-H1975 = settings: Homo sapiens; NCI-H1975, Lung adenocarcinoma
Description: as §1, §2

NCI-H460 = settings: Homo sapiens; NCI-H460, Large cell lung carcinoma
Description: as §1, §2

OCUG-1 = settings: OCUG-1, Gallbladder carcinoma
Description: as §1, §2

OS-RC-2 = settings: Homo sapiens; OS-RC-2, Renal cell carcinoma
Description: as §1, §2

OVCAR-3 = settings: Homo sapiens; OVCAR-3, High grade ovarian serous adenocarcinoma
Description: as §1, §2

PLC/PRF/5 = settings: Homo sapiens; PLC/PRF/5, Hepatocellular carcinoma
Description: as §1, §2

SF268 = settings: Homo sapiens, SF-268; SF268, Astrocytoma
Description: as §1, §2

SK-OV-3 = settings: Homo sapiens; SK-OV-3, Ovarian serous cystadenocarcinoma
Description: as §1, §2

SNU-354 = settings: Homo sapiens; SNU-354, Hepatocellular carcinoma
Description: as §1, §2

SNU-368 = settings: SNU-368, Hepatocellular carcinoma
Description: as §1, §2

SNU-387 = settings: Homo sapiens; SNU-387, Hepatocellular carcinoma
Description: as §1, §2

SNU-398 = settings: Homo sapiens; SNU-398, Hepatocellular carcinoma
Description: as §1, §2

SNU-449 = settings: Homo sapiens; SNU-449, Hepatocellular carcinoma
Description: as §1, §2

SNU-475 = settings: Homo sapiens; SNU-475, Hepatocellular carcinoma
Description: as §1, §2

SNU-739 = settings: SNU-739, Hepatocellular carcinoma
Description: as §1, §2

SNU-761 = settings: SNU-761, Hepatocellular carcinoma
Description: as §1, §2

Saos-2 = settings: Homo sapiens; Saos-2, Osteosarcoma
Description: as §1, §2

U-87 MG = settings: Homo sapiens, Glioblastoma
Description: as §1, §2

UO.31 = settings: Homo sapiens; UO.31, Renal cell carcinoma
Description: as §1, §2

`N=C(N)c1ccc(OCCCCCOc2ccc(C(=N)N)nc2)cc1` [Compound 1, 5-(5-(4-carbamimidoylphenoxy)pentyloxy)picolinimidamide] was tested, and the IC50 (786-O) was 9630 nM, the IC50 (ACHN) was 4640 nM and the IC50 (Caki-2) was 4180 nM. For the same compound, the IC50 (HCCLM3) was 12200 nM, the IC50 (HCT 116) was 2670 nM and the IC50 (HLF) was 2040 nM. For the same compound, the IC50 (HUH-1) was 3200 nM, the IC50 (HUH-6 CLONE5) was 860 nM and the IC50 (Hep G2) was 340 nM. For the same compound, the IC50 (Hep3B) was 280 nM, the IC50 (HuCCT1) was 8010 nM and the IC50 (JHH-1) was 3870 nM. For the same compound, the IC50 (JHH-6) was 380 nM, the IC50 (LN-229) was 1600 nM and the IC50 (LNCaP clone FGC) was 1780 nM. The IC50 (MHCC97-H) was 8310 nM, the IC50 (MKN45) was 640 nM and the IC50 (NCI-H1975) was 2660 nM. For the same compound, the IC50 (NCI-H460) was 520 nM, the IC50 (OCUG-1) was 2890 nM and the IC50 (OS-RC-2) was 1700 nM. For the same compound, the IC50 (OVCAR-3) was 1960 nM, the IC50 (PLC/PRF/5) was 4130 nM and the IC50 (SF268) was 750 nM. For the same compound, the IC50 (SK-OV-3) was 1170 nM, the IC50 (SNU-354) was 840 nM and the IC50 (SNU-368) was 360 nM. The IC50 (SNU-387) was 4000 nM, the IC50 (SNU-398) was 220 nM and the IC50 (SNU-449) was 1570 nM. For the same compound, the IC50 (SNU-475) was 1250 nM, the IC50 (SNU-739) was 2230 nM and the IC50 (SNU-761) was 3310 nM. The IC50 (Saos-2) was 2390 nM, the IC50 (U-87 MG) was 5580 nM and the IC50 (UO.31) was 3470 nM.
